PubChem BioAssay (NCI)
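1) Cells in 96-well plates. 2) Compound, 48 h, 5 concentrations. 3) Linear interpolation between surrounding doses. 4) Unreached endpoint = highest concentration. Definition used: TGI = concentration required for complete inhibition of growth.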

Tests used:
Assay in all cases: growth of human tumour cells (NCI), 48 h
786-0 renal = system: 786-0 renal
HCC-2998 colon = system: HCC-2998 colon
NCI-H226 lung = system: NCI-H226 lung
OVCAR-8 ovarian = system: OVCAR-8 ovarian
RPMI-8226 leukemia = system: RPMI-8226 leukemia
SF-539 CNS = system: SF-539 CNS
SK-MEL-5 melanoma = system: SK-MEL-5 melanoma
UACC-257 melanoma = system: UACC-257 melanoma

SMILES | TGI (786-0 renal) [µM] | TGI (HCC-2998 colon) [µM] | TGI (NCI-H226 lung) [µM] | TGI (OVCAR-8 ovarian) [µM] | TGI (RPMI-8226 leukemia) [µM] | TGI (SF-539 CNS) [µM] | TGI (SK-MEL-5 melanoma) [µM] | TGI (UACC-257 melanoma) [µM]
O=C(O)c1cc2ccc(Cl)cc2c(O)c1C1=CCCCC1 | > 100 | > 100 | 68.3 | > 100 | > 100 | > 100 | 81.9 | 88.5
O=C(CC/C(CC(=O)c1ccc(Cl)cc1)=N\O)Nc1cccc(Cl)c1 | > 100 | > 100 | – | > 100 | > 100 | > 100 | > 100 | > 100
NC(=O)C1C(=O)Oc2cccnc21 (stereo not given) | > 100 | – | > 100 | > 100 | > 100 | > 100 | > 100 | > 100
C=C(/C=C/C=C(\CO)CCC=C(C)C)[C@H]1CCC2([C@H](CCCO)/C(=C(/C)C=O)CC[C@]2(C)O)[C@H]1O (stereo not given in full) | > 100 | > 100 | – | > 100 | > 100 | > 100 | > 100 | > 100
CCOC(=O)C(=O)Nc1nc2ccc(OC)cc2s1 | > 100 | > 100 | > 100 | > 100 | > 100 | > 100 | > 100 | > 100
CNC(=O)N(CCCCC(NC(C)=O)C(=O)NCc1ccccc1)Cc1ccccc1 (stereo not given) | > 100 | > 100 | > 100 | > 100 | > 100 | > 100 | > 100 | > 100
COc1ccc(S(=O)(=O)NNS(C)(=O)=O)cc1OC | > 100 | > 100 | > 100 | > 100 | > 100 | > 100 | > 100 | > 100
O=C(/C=N/O)Nc1cccc(Cl)c1I | > 100 | > 100 | > 100 | > 100 | > 100 | – | > 100 | > 100
O=C(Nc1c(Cl)cc([N+](=O)[O-])cc1Cl)C(=O)C(C(=O)c1ccncc1)C1OC(=O)c2ccccc21 (stereo not given) | > 100 | > 100 | > 100 | > 100 | > 100 | – | – | > 100
Cc1cc(N(CCC#N)CCC#N)ccc1/C=C1N=C(/C=C\c2ccccc2)N(c2ccc(C(=O)O)cc2)C\1=O | > 100 | – | > 100 | > 100 | > 100 | > 100 | > 100 | > 100
COc1ccc(C2C(C(=O)O)=C(COC(C)=O)Oc3cc4c(cc32)OCO4)c(OC)c1 (stereo not given) | > 100 | – | – | > 100 | > 100 | > 100 | > 100 | > 100
CN(C)CN(C)c1nc(N(C)C)nc(N(C)C)n1 | > 100 | > 100 | – | > 100 | > 100 | > 100 | > 100 | > 100
Cc1c(C(=O)/C=C/c2ccc3c(c2)OCO3)[n+](=O)c2ccccc2n1[O-] | > 100 | 57.5 | 60.9 | 62.9 | 69.3 | 49.3 | – | > 100
O=S1(=O)CS(=O)(=O)OCCCCCO1 | > 100 | > 100 | > 100 | > 100 | > 100 | – | – | > 100
COc1cc2c(c(OC)c1OC)-c1ccc(SC)c(=O)cc1C(CC(=O)Oc1ccccc1F)C2 (stereo not given) | > 7.5 | 0.373 | 0.444 | > 7.5 | > 7.5 | – | – | –
COc1ccc(/C(C#N)=C2/O/C(=N/N)C(c3ccc(OC)c(OC)c3)C2=O)cc1OC (stereo not given) | > 100 | – | > 100 | – | > 100 | > 100 | > 100 | > 100
Cc1cccc(NC(=O)CSc2nnc(-c3ccc(N=Cc4ccc(Cl)cc4)cc3)o2)c1 | > 100 | – | > 100 | > 100 | > 100 | – | > 100 | > 100
Cc1cc2nc3c(C(OC4OC(CO)C(O)C(O)C4O)C(O)CO)nn(-c4ccc(F)cc4)c3nc2cc1C (stereo not given) | > 100 | > 100 | – | > 100 | > 100 | > 100 | – | > 100
O=C(Cn1ccnc1[N+](=O)[O-])NCc1ccc(F)cc1 | > 100 | – | > 100 | > 100 | > 100 | > 100 | > 100 | > 100
COc1cc2ccc(CC(=O)O)cc2cc1OC | > 100 | > 100 | > 100 | > 100 | > 100 | – | > 100 | > 100
COc1cc([C@H]2c3cc4c(cc3[C@H](NCc3ccc(F)cc3)C3COC(=O)[C@H]32)OCO4)cc(OC)c1O (stereo not given in full) | 5.48 | 23.8 | 7.61 | 35.1 | 18.2 | 5.07 | – | 43.6
CCOC(=O)c1cnc2c(ccc3ncccc32)c1OCC | > 100 | > 100 | > 100 | > 100 | – | > 100 | > 100 | > 100
